# Experimental data taken from ChEMBL document CHEMBL1909294, “Translating clinical findings into knowledge in drug safety evaluation--drug induced liver injury prediction system (DILIps)” (PLoS Comput Biol, 2011).
# Columns and labels:
# Hepatotoxicity [1] = test system: Hepatotoxicity;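 on HepSE Combined Scores: combined hepatic side effect score as listed in the training data of the Drug Induced Liver Injury Prediction System (DILIps)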;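 on HepSE bilirubinemia: bilirubinemia hepatic side effect score drawn from the DILIps training data, a prediction system for drug-induced liver injury; call rule not given here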;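 on HepSE cirrhosis: cirrhosis hepatic side effect score taken from the DILIps (drug-induced liver injury prediction) training set; call rule not given here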; on HepSE hepatic failure: call rule not given here;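 on HepSE jaundice: Jaundice-related hepatic side-effect score drawn from the training data of the DILIps (drug-induced liver injury prediction system); call rule not given here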;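 on HepSE liver fatty: hepatic side effect score for fatty liver, taken from the DILIps training set for predicting drug-induced liver injury; call rule not given here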;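 on HepSE liver function tests abnormal: hepatic side effect score taken from the DILIps (drug-induced liver injury prediction system) training data, here covering abnormal liver function test findings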
# Hepatotoxicity [2] = test system: Hepatotoxicity; remark: listed apart in the source;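 on HepSE Combined Scores: combined hepatic side effect score as listed in the training data of the Drug Induced Liver Injury Prediction System (DILIps)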;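 on HepSE bilirubinemia: bilirubinemia hepatic side effect score drawn from the DILIps training data, a prediction system for drug-induced liver injury; call rule not given here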;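 on HepSE cirrhosis: cirrhosis hepatic side effect score taken from the DILIps (drug-induced liver injury prediction) training set; call rule not given here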; on HepSE hepatic failure: call rule not given here;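 on HepSE jaundice: Jaundice-related hepatic side-effect score drawn from the training data of the DILIps (drug-induced liver injury prediction system); call rule not given here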;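 on HepSE liver fatty: hepatic side effect score for fatty liver, taken from the DILIps training set for predicting drug-induced liver injury; call rule not given here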;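 on HepSE liver function tests abnormal: hepatic side effect score taken from the DILIps (drug-induced liver injury prediction system) training data, here covering abnormal liver function test findings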
# Hepatotoxicity [3] = test system: Hepatotoxicity; remark: listed apart in the source;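 on HepSE bilirubinemia: bilirubinemia hepatic side effect score drawn from the DILIps training data, a prediction system for drug-induced liver injury; call rule not given here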;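 on HepSE cirrhosis: cirrhosis hepatic side effect score taken from the DILIps (drug-induced liver injury prediction) training set; call rule not given here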; on HepSE hepatic failure: call rule not given here;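 on HepSE jaundice: Jaundice-related hepatic side-effect score drawn from the training data of the DILIps (drug-induced liver injury prediction system); call rule not given here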;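 on HepSE liver fatty: hepatic side effect score for fatty liver, taken from the DILIps training set for predicting drug-induced liver injury; call rule not given here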;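 on HepSE liver function tests abnormal: hepatic side effect score taken from the DILIps (drug-induced liver injury prediction system) training data, here covering abnormal liver function test findings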
# Hepatotoxicity [4] = test system: Hepatotoxicity; remark: listed apart in the source;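 on HepSE bilirubinemia: bilirubinemia hepatic side effect score drawn from the DILIps training data, a prediction system for drug-induced liver injury; call rule not given here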;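 on HepSE cirrhosis: cirrhosis hepatic side effect score taken from the DILIps (drug-induced liver injury prediction) training set; call rule not given here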; on HepSE hepatic failure: call rule not given here;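 on HepSE jaundice: Jaundice-related hepatic side-effect score drawn from the training data of the DILIps (drug-induced liver injury prediction system); call rule not given here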;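 on HepSE liver fatty: hepatic side effect score for fatty liver, taken from the DILIps training set for predicting drug-induced liver injury; call rule not given here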;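 on HepSE liver function tests abnormal: hepatic side effect score taken from the DILIps (drug-induced liver injury prediction system) training data, here covering abnormal liver function test findings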
# Hepatotoxicity [5] = test system: Hepatotoxicity; remark: listed apart in the source; on HepSE hepatic failure: call rule not given here
# Hepatotoxicity [6] = test system: Hepatotoxicity; remark: listed apart in the source; on HepSE hepatic failure: call rule not given here
# Hepatotoxicity [7] = test system: Hepatotoxicity; remark: listed apart in the source
# Hepatotoxicity [8] = test system: Hepatotoxicity; remark: listed apart in the source
# Hepatotoxicity [9] = test system: Hepatotoxicity; remark: listed apart in the source
# Hepatotoxicity [10] = test system: Hepatotoxicity; remark: listed apart in the source
# Hepatotoxicity [11] = test system: Hepatotoxicity; remark: listed apart in the source
# Hepatotoxicity [12] = test system: Hepatotoxicity; remark: listed apart in the source
# Hepatotoxicity [13] = test system: Hepatotoxicity; remark: listed apart in the source
# Hepatotoxicity [14] = test system: Hepatotoxicity; remark: listed apart in the source
Compound,HepSE_jaundice (Hepatotoxicity [1]),HepSE_liver fatty (Hepatotoxicity [2]),HepSE_cirrhosis (Hepatotoxicity [3]),HepSE_liver function tests abnormal (Hepatotoxicity [4]),HepSE_bilirubinemia (Hepatotoxicity [5]),HepSE_hepatic failure (Hepatotoxicity [6]),HepSE_Combined Scores (Hepatotoxicity [7]),HepSE_elevated liver function tests (Hepatotoxicity [8]),HepSE_hepatomegaly (Hepatotoxicity [9]),HepSE_hepatic necrosis (Hepatotoxicity [10]),HepSE_cholecystitis (Hepatotoxicity [11]),HepSE_cholelithiasis (Hepatotoxicity [12]),HepSE_liver disease (Hepatotoxicity [13]),HepSE_hepatitis (Hepatotoxicity [14]),further results
CO[C@]12CC[C@@]3(C[C@@H]1[C@](C)(O)C(C)(C)C)[C@H]1Cc4ccc(O)c5c4[C@@]3(CCN1CC1CC1)[C@H]2O5 [BUPRENORPHINE],0,0,0,0,0,0,0,0,0,0,0,0,0,0,
CNCC[C@@H](Oc1ccccc1C)c1ccccc1 [ATOMOXETINE],0,0,0,1,0,0,1,0,0,0,0,0,0,0,
CCn1cc(C(=O)O)c(=O)c2cc(F)c(N3CCNCC3)cc21 [NORFLOXACIN],,,,,,,,,,,,,,,HepSE_jaundice (Hepatotoxicity [1]; Liver): 1; HepSE_liver fatty (Hepatotoxicity [2]; Liver): 0; HepSE_cirrhosis (Hepatotoxicity [3]; Liver): 0; HepSE_liver function tests abnormal (Hepatotoxicity [4]; Liver): 0; HepSE_bilirubinemia (Hepatotoxicity [5]; Liver): 0; HepSE_hepatic failure (Hepatotoxicity [6]; Liver): 1; HepSE_Combined Scores (Hepatotoxicity [7]; Liver): 5; HepSE_elevated liver function tests (Hepatotoxicity [8]; Liver): 1; HepSE_hepatomegaly (Hepatotoxicity [9]; Liver): 0; HepSE_hepatic necrosis (Hepatotoxicity [10]; Liver): 1; HepSE_cholecystitis (Hepatotoxicity [11]; Liver): 0; HepSE_cholelithiasis (Hepatotoxicity [12]; Liver): 0; HepSE_liver disease (Hepatotoxicity [13]; Liver): 0; HepSE_hepatitis (Hepatotoxicity [14]; Liver): 1
Oc1ccc(OCc2ccccc2)cc1 [MONOBENZONE],0,0,0,0,0,0,0,0,0,0,0,0,0,0,
COC(c1ccccc1)(c1ccccc1)[C@H](Oc1nc(C)cc(C)n1)C(=O)O [AMBRISENTAN],0,0,0,0,0,0,0,0,0,0,0,0,0,0,
CN[C@H]1CC[C@@H](c2ccc(Cl)c(Cl)c2)c2ccccc21 [SERTRALINE],,,,,,,,,,,,,,,HepSE_jaundice (Hepatotoxicity [1]; Liver): 1; HepSE_liver fatty (Hepatotoxicity [2]; Liver): 0; HepSE_cirrhosis (Hepatotoxicity [3]; Liver): 0; HepSE_liver function tests abnormal (Hepatotoxicity [4]; Liver): 0; HepSE_bilirubinemia (Hepatotoxicity [5]; Liver): 0; HepSE_hepatic failure (Hepatotoxicity [6]; Liver): 1; HepSE_Combined Scores (Hepatotoxicity [7]; Liver): 4; HepSE_elevated liver function tests (Hepatotoxicity [8]; Liver): 0; HepSE_hepatomegaly (Hepatotoxicity [9]; Liver): 1; HepSE_hepatic necrosis (Hepatotoxicity [10]; Liver): 0; HepSE_cholecystitis (Hepatotoxicity [11]; Liver): 0; HepSE_cholelithiasis (Hepatotoxicity [12]; Liver): 0; HepSE_liver disease (Hepatotoxicity [13]; Liver): 0; HepSE_hepatitis (Hepatotoxicity [14]; Liver): 1
CCCN(CCc1ccsc1)C1CCc2c(O)cccc2C1 (configuration not stated),0,0,0,0,0,0,0,0,0,0,0,0,0,0,
CN(C/C=C/c1ccccc1)Cc1cccc2ccccc12 [NAFTIFINE],,,,,,,,,,,,,,,HepSE_jaundice (Hepatotoxicity [1]; Liver): 0; HepSE_liver fatty (Hepatotoxicity [2]; Liver): 0; HepSE_cirrhosis (Hepatotoxicity [3]; Liver): 0; HepSE_liver function tests abnormal (Hepatotoxicity [4]; Liver): 0; HepSE_bilirubinemia (Hepatotoxicity [5]; Liver): 0; HepSE_hepatic failure (Hepatotoxicity [6]; Liver): 0; HepSE_Combined Scores (Hepatotoxicity [7]; Liver): 0; HepSE_elevated liver function tests (Hepatotoxicity [8]; Liver): 0; HepSE_hepatomegaly (Hepatotoxicity [9]; Liver): 0; HepSE_hepatic necrosis (Hepatotoxicity [10]; Liver): 0; HepSE_cholecystitis (Hepatotoxicity [11]; Liver): 0; HepSE_cholelithiasis (Hepatotoxicity [12]; Liver): 0; HepSE_liver disease (Hepatotoxicity [13]; Liver): 0; HepSE_hepatitis (Hepatotoxicity [14]; Liver): 0
CC(C)[N+](C)(CCOC(=O)C1c2ccccc2Oc2ccccc21)C(C)C [PROPANTHELINE],0,0,0,0,0,0,0,0,0,0,0,0,0,0,
CCCc1nc(C)c2c(=O)[nH]c(-c3cc(S(=O)(=O)N4CCN(CC)CC4)ccc3OCC)nn12,0,0,0,1,0,0,1,0,0,0,0,0,0,0,
Cc1ccc(O)c([C@H](CCN(C(C)C)C(C)C)c2ccccc2)c1 [TOLTERODINE],0,0,0,0,0,0,0,0,0,0,0,0,0,0,
COc1cc2nc(N3CCN(C(=O)C4CCCO4)CC3)nc(N)c2cc1OC (configuration not stated) [TERAZOSIN],1,0,0,0,0,0,1,0,0,0,0,0,0,0,
CC(C)NCC(O)c1ccc(NS(C)(=O)=O)cc1 (configuration not stated) [SOTALOL],0,0,0,0,0,0,0,0,0,0,0,0,0,0,
CN(C)CCCN1c2ccccc2CCc2ccc(Cl)cc21 [CLOMIPRAMINE],0,0,0,0,0,0,1,0,0,0,0,0,0,1,
CC(CN(C)C)CN1c2ccccc2CCc2ccccc21 (configuration not stated) [TRIMIPRAMINE],1,0,0,0,0,0,1,0,0,0,0,0,0,0,
CNC(=O)c1cc(Oc2ccc(NC(=O)Nc3ccc(Cl)c(C(F)(F)F)c3)cc2)ccn1 [SORAFENIB],1,0,0,0,0,0,2,0,0,0,1,0,0,0,
CC(C)n1c(/C=C/C(O)CC(O)CC(=O)O)c(-c2ccc(F)cc2)c2ccccc21 (configuration not stated) [FLUVASTATIN],,,,,,,,,,,,,,,HepSE_jaundice (Hepatotoxicity [1]; Liver): 1; HepSE_liver fatty (Hepatotoxicity [2]; Liver): 0; HepSE_cirrhosis (Hepatotoxicity [3]; Liver): 1; HepSE_liver function tests abnormal (Hepatotoxicity [4]; Liver): 0; HepSE_bilirubinemia (Hepatotoxicity [5]; Liver): 0; HepSE_hepatic failure (Hepatotoxicity [6]; Liver): 0; HepSE_Combined Scores (Hepatotoxicity [7]; Liver): 4; HepSE_elevated liver function tests (Hepatotoxicity [8]; Liver): 0; HepSE_hepatomegaly (Hepatotoxicity [9]; Liver): 0; HepSE_hepatic necrosis (Hepatotoxicity [10]; Liver): 1; HepSE_cholecystitis (Hepatotoxicity [11]; Liver): 0; HepSE_cholelithiasis (Hepatotoxicity [12]; Liver): 0; HepSE_liver disease (Hepatotoxicity [13]; Liver): 0; HepSE_hepatitis (Hepatotoxicity [14]; Liver): 1
VITAMIN B12,0,0,0,0,0,0,0,0,0,0,0,0,0,0,
